Blank lines part the entries; values can stand above or below the compound they belong to.
Legend:
[1] = target: T1, Amine oxidase [flavin-containing] A (Homo sapiens, UniProt P21397); experiment: Inhibition of recombinant human MAO-A expressed in insect cells using kynuramine as substrate assessed as formation of 4-hydroxyquinoline measured every 5 mins for 30 mins
T1 sequence (P21397 whole entry): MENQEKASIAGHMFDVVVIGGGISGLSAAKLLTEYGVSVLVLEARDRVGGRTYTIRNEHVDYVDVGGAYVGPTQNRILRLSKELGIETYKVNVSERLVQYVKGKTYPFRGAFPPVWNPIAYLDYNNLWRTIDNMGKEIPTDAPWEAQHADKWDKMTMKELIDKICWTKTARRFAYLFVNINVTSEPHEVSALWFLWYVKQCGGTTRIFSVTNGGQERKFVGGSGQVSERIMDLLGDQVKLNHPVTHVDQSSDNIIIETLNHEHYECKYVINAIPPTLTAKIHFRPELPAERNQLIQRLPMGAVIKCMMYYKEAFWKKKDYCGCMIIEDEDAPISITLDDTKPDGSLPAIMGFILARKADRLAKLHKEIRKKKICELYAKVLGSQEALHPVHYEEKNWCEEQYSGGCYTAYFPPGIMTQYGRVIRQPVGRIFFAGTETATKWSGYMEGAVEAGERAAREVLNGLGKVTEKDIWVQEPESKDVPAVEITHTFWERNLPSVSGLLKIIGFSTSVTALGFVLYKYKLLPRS

[2] = target: T2, Amine oxidase [flavin-containing] B (Homo sapiens, UniProt P27338); experiment: Inhibition of recombinant human MAO-B expressed in insect cells using kynuramine as substrate assessed as formation of 4-hydroxyquinoline measured every 5 mins for 30 mins; type: cell-based
T2 sequence (P27338 whole entry): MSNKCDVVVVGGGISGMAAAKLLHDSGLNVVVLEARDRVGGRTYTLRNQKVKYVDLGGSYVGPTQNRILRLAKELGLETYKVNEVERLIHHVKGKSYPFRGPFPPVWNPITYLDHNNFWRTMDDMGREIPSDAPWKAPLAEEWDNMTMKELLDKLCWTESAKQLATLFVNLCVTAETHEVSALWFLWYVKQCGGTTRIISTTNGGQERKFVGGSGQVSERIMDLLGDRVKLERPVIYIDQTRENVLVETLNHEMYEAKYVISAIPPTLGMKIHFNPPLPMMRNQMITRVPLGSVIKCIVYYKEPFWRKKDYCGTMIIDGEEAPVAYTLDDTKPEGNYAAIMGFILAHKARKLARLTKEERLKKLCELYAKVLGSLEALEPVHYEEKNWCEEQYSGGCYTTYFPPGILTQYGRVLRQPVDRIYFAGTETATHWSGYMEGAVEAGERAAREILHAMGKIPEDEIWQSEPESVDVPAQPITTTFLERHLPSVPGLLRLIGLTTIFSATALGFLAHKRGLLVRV

Homo sapiens = species on record: Homo sapiens; experiment: Selectivity ratio of IC50 for recombinant human MAO-B to IC50 for recombinant human MAO-A; settings: tested as the 2H-labelled form
[3] = Stability in cynomolgus monkey plasma assessed as unchanged parent compound at 168 to 174 MBq, iv after 15 mins by RP-HPLC analysis; type: ADME, organism-based, Macaca fascicularis; settings: read-out: Stability
[4] = Drug uptake in cynomolgus monkey cortex at 168 to 174 MBq, iv after 60 mins by PET analysis; type: ADME, organism-based, Macaca fascicularis; settings: in vivo, 1 h
[5] = Drug uptake in cynomolgus monkey cerebellum at 168 to 174 MBq, iv after 60 mins by PET analysis; type: ADME, organism-based, Macaca fascicularis; settings: in vivo, 1 h
[6] = Stability in cynomolgus monkey plasma assessed as unchanged parent compound at 168 to 174 MBq, iv after 120 mins by RP-HPLC analysis; type: ADME, organism-based, Macaca fascicularis; settings: read-out: Stability
[7] = Drug uptake in cynomolgus monkey striatum at 168 to 174 MBq, iv after 60 mins by PET analysis in presence of L-deprenyl; type: ADME, organism-based, Macaca fascicularis; settings: in vivo, 1 h
Cynomolgus monkey [8] = experiment: Drug metabolism in cynomolgus monkey plasma assessed as radiometabolite M2 retention time at 168 to 174 MBq, iv by RP-HPLC analysis; type: ADME, organism-based, Macaca fascicularis
[9] = Drug recovery in cynomolgus monkey plasma at 168 to 174 MBq, iv by RP-HPLC analysis in presence of acetonitrile; type: ADME, organism-based, Macaca fascicularis; settings: read-out: Drug recovery
Brain = experiment: Drug uptake in cynomolgus monkey brain at 168 to 174 MBq, iv after 4 mins by PET analysis; type: ADME, organism-based, Macaca fascicularis; settings: in vivo
[10] = Drug uptake in cynomolgus monkey cerebellum at 168 to 174 MBq, iv after 60 mins by PET analysis in presence of L-deprenyl; type: ADME, organism-based, Macaca fascicularis; settings: in vivo, 1 h
[11] = Stability in cynomolgus monkey plasma assessed as unchanged parent compound at 168 to 174 MBq, iv after 45 mins by RP-HPLC analysis; type: ADME, organism-based, Macaca fascicularis; settings: read-out: Stability
Cynomolgus monkey [12] = experiment: Drug metabolism in cynomolgus monkey plasma assessed as radiometabolite M1 retention time at 168 to 174 MBq, iv RP-HPLC analysis; type: ADME, organism-based, Macaca fascicularis
[13] = Drug uptake in cynomolgus monkey cortex at 168 to 174 MBq, iv after 60 mins by PET analysis in presence of L-deprenyl; type: ADME, organism-based, Macaca fascicularis; settings: in vivo, 1 h
[14] = Chemical stability of the compound in PBS at pH 7.4 after 180 mins; type: physicochemical; settings: read-out: Stability
[15] = Drug uptake in cynomolgus monkey striatum at 168 to 174 MBq, iv after 60 mins by PET analysis; type: ADME, organism-based, Macaca fascicularis; settings: in vivo, 1 h
Thalamus [16] = experiment: Drug uptake in cynomolgus monkey thalamus at 168 to 174 MBq, iv after 60 mins by PET analysis; type: ADME, organism-based, Macaca fascicularis; settings: in vivo, 1 h
Thalamus [17] = experiment: Drug uptake in cynomolgus monkey thalamus at 168 to 174 MBq, iv after 60 mins by PET analysis in presence of L-deprenyl; type: ADME, organism-based, Macaca fascicularis; settings: in vivo, 1 h

SMILES: C#CCN[C@H]1c2ccccc2C[C@@H]1F [FLUORORASAGILINE]
IC50 [2]: 27 nM

SMILES: C#CCN[C@H]1c2ccccc2C[C@@H]1[18F] [[18F]FLUORORASAGILINE]
remaining at 2 h [6]: 35%
remaining at 0.75 h [11]: 55%

Second part, the compound after the results:

IC50 [1]: 9900 nM
IC50 [2]: 173 nM
SMILES: [2H]C([2H])(C#C)N[C@@H]1c2ccccc2C[C@H]1F

Ratio IC50 (Homo sapiens): 19
SMILES: C#CCN[C@@H]1c2ccccc2C[C@H]1F

remaining at 0.25 h [3]: 75%
SUV [4]: 1.1%
SUV [5]: 0.99%
remaining at 2 h [6]: 20%
SUV [7]: 0.77%
Retention_time (Cynomolgus monkey [8]): 6.7 min
recovery [9]: > 95%
SUV (Brain): 270%
SUV [10]: 0.54%
remaining at 0.75 h [11]: 50%
Retention_time (Cynomolgus monkey [12]): 2.9 min
SUV [13]: 0.66%
remaining at 3 h [14]: > 97%
SUV [15]: 1.38%
SUV (Thalamus [16]): 1.46%
SUV (Thalamus [17]): 0.78%
SMILES: [2H]C([2H])(C#C)N[C@@H]1c2ccccc2C[C@H]1[18F] [[18F]FLUORORASAGILINE-D2]

From ChEMBL document CHEMBL2440022, “Development of a novel fluorine-18 labeled deuterated fluororasagiline ([(18)F]fluororasagiline-D2) radioligand for PET studies of monoamino oxidase B (MAO-B)” (Bioorg Med Chem, 2013)
